The record followed here is patent US7122550B2, “Protein kinase inhibitors” (Cytopia Pty Ltd, priority 2002, dated 2006).

Common to all, as to type: cell-based
The target in one assay is T1, Tel-Jak2 (Homo sapiens, UniProt O60674).
T1 construct: The regions encompassing the kinase domains of JAK2 (nucleotides 2994–3914); TEL (ETV6, human P41212) N-terminal part encoded by nucleotides 1-487 of TEL; expressed in transfected cells; host or cells: BaF3 (murine) bearing pTET-off, transfected with pTELJAK2 (pTRE2 vector); the other entry of the earlier key: ETV6 (P41212, Transcription factor ETV6)
T1 sequence (O60674 with tags, fused parts or gaps): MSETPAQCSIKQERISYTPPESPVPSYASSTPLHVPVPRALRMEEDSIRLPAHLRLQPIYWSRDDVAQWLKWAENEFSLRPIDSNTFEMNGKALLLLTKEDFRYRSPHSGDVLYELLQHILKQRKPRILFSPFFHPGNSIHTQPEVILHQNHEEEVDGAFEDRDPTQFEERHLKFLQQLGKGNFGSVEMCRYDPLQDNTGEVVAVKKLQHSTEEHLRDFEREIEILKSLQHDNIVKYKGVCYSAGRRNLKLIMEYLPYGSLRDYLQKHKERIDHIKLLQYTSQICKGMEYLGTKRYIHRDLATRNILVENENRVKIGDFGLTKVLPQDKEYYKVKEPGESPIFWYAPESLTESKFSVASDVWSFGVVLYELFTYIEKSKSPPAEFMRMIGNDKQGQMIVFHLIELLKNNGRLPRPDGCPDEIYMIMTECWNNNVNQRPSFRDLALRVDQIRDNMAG
Put plainly: Cellular growth inhibition assay (MTT), Tel-Jak2 transformed BaF3 cell line. The settings on record: 40 hr incubation, read-out: Jak2: growth inhibitory activity (>50%) in transformed cell line Tel-Jak2. The text has this:
(§1) The coding region encompassing nucleotides 1–487 of TELwas amplified by PCR using the oligonucleotides 5TEL (5′-GGAGGATCCTGATCTCTCTCGCTGTGAGAC-3′) and 3TEL (5′-AGGC GTCGACTTCTTCTTCATGGTTCTG-3′) and U937 mRNA as template. A BamHI site was present into the 5TEL Primer, a SalI site was incorporated into the 3TEL primer. The regions encompassing the kinase domains of JAK2 (nucleotides 2994–3914; JAK2F 5′-ACGC GTCGACGGTGCCTTTGAAGACCGGGAT-3′; JAK2R 5′-ATAGTTTAGCGGCCGCTCAGAATGAAGGTCATTT-3′) and JAK3 (nucleotides 2520–3469; JAK3F 5′-GAAGTCGACTATGCCTGCCAAGACCCCACGATCTT-3′; JAK3R 5′-GGATCTAGACTATGAAAAGGACAGGGAGTGGTGTTT-3′) were generated by PCR using Taq DNA Polymerase (Gibco/BRL) and U937 mRNA as template. A SalI site was incorporated into the forward primer of JAK2 and JAK3, a NotI site was incorporated into the JAK2 reverse primer and a Xba I site was added to the reverse primer of JAK3.
(§2) A TEL/Jak2 fusion was generated by digestion of the TELPCR product with BamHI/SalI, digestion of the JAK2 PCR product with SalI/NotI followed by ligation and subcloning into the mammalian expression Vector pTRE 2 (Clontech) digested with BamHI-NotI (pTELJAK2). For JAK3 SalI/NotI cleaved kinase domain PCR product was ligated with BamHI/SalI cleaved TELproduct followed by ligation into BamHI/NotI cleaved pTRE2 (pTELJAK3).
(§3) The growth factor dependent myelomonocytic cell line BaF3 bearing the pTET-off plasmid (Clontech) was transfected with either pTELJAK2 or pTELJAK3 and the cells selected for factor independent growth. BaF 3 wild type cells were cultured in DMEM 10% FCS, 10% WEHI 3B conditioned medium. BaF3 TELJAK cells were cultured in DMEM 10% Tet-System Approved FBS (without WEHI 3B conditioned medium).
(§4) Cell suspensions were prepared by harvesting cells from culture. (Cells used in this test should be in later log phase growth and high viability.) Cells were diluted in correct growth medium to 1.1×final concentration (from 50000 cell/mL to 200,000 cell/mL, depending on cell line).
(§5) Compounds to be tested were added (10 μL, 10×final concentration) to a flat bottom 96-well plate. The cellular suspension (90 μL per well) was added, and the plate incubated for 40 hr at 37° C., 5% CO2. MTT (20 μL per well, 5 mg/mL in PBS) was added and the plates were returned to the incubator for a further 6 hours. Lysis buffer (100 μL per well, 10% SDS, 0.01N HCl) was added and the plate stored in the incubator overnight. The plate was then read at 590 nm.

The next assay deals with T2, Tel-Jak3 (Homo sapiens, UniProt P52333).
T2 construct: TEL (ETV6, human P41212) N-terminal part encoded by nucleotides 1-487 of TEL; expressed in transfected cells; host or cells: BaF3 (murine) bearing pTET-off, transfected with pTELJAK3 (pTRE2 vector); the other entry of the earlier key: ETV6 (P41212, Transcription factor ETV6)
T2 sequence (P52333 with tags, fused parts or gaps): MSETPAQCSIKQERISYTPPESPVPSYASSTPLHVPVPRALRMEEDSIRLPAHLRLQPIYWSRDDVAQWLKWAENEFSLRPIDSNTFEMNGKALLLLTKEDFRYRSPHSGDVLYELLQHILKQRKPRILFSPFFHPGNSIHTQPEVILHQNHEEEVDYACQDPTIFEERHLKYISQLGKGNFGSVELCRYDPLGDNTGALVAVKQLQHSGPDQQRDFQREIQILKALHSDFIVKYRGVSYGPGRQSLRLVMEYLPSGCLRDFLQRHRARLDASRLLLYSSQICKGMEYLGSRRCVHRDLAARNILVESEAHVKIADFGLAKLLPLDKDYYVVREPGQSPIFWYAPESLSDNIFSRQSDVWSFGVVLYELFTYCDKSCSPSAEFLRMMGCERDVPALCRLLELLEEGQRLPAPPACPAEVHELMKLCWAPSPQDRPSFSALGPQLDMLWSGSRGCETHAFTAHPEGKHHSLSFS
Put plainly: Cellular growth inhibition assay (MTT), Tel-Jak3 transformed BaF3 cell line. The settings on record: 40 hr incubation, read-out: Jak3: growth inhibitory activity (>50%) in transformed cell line Tel-Jak3.
From the text: as §1, §2, §3, §4, §5

In the next assay the test system is DU145. Put plainly: Cellular growth inhibition assay (MTT), DU145 cells. Conditions: Homo sapiens, DU-145, 40 hr incubation, read-out: DU145: growth inhibitory activity. As for the experimental part:
as §4, §5

For the compound `COc1cc(-c2cncc(N[C@H]3CCc4ccccc43)n2)ccc1O` [Chemistry 68], the inhibition at 50 µM at Tel-Jak2 and at Tel-Jak3 was greater than 50% in each case.

Take `COc1cc(-c2cncc(N[C@H]3CCCc4ccccc43)n2)ccc1O` [Chemistry 87]: the inhibition at 50 µM at Tel-Jak2 is greater than 50%; at Tel-Jak3, less than 50%.

`COc1ccc([C@H](C)Nc2cncc(-c3ccc(O)c(OC)c3)n2)cc1` [Chemistry 117]: the inhibition at 50 µM on Tel-Jak2 is greater than 50%; at Tel-Jak3, greater than 50%; with DU145 it was less than 50%.

Consider `COc1cc(-c2cncc(N[C@@H](C)c3ccccc3)n2)ccc1O` [Chemistry 118], for which the inhibition at 50 µM on Tel-Jak2, at Tel-Jak3 and in the assay on DU145 was greater than 50% in each case.

Take `CC[C@H](Nc1cncc(-c2ccc(O)c(OC)c2)n1)c1ccccc1` [Chemistry 119]: the inhibition at 50 µM on Tel-Jak2, at Tel-Jak3 and in the assay with DU145 was greater than 50% each time.

With `COc1cc(-c2cncc(Nc3cc(Cl)ccc3C)n2)ccc1O` [Chemistry 130], the inhibition at 50 µM on Tel-Jak2 is greater than 50%; on Tel-Jak3, less than 50%; in the assay with DU145, greater than 50%.

Take `COc1cc(-c2cncc(NCc3cccnc3)n2)ccc1O` [Chemistry 136]: the inhibition at 50 µM on Tel-Jak2, at Tel-Jak3 and in the assay with DU145 was greater than 50% in each case.

With `COc1cc(-c2cncc(N(C)Cc3ccccc3)n2)ccc1O` [Chemistry 137], the figures for the inhibition at 50 µM at Tel-Jak2, on Tel-Jak3 and with DU145 were greater than 50%, greater than 50% and less than 50%, respectively.

As for `COc1cc(-c2cncc(NCc3ccc(Cl)c(Cl)c3)n2)ccc1O` [Chemistry 139], the inhibition at 50 µM on Tel-Jak2 was greater than 50%; at Tel-Jak3 it was greater than 50%; with DU145, less than 50%.

Regarding `COc1cc(-c2cncc(NCc3ccco3)n2)ccc1O` [Chemistry 141], the inhibition at 50 µM at Tel-Jak2, at Tel-Jak3 and with DU145 was greater than 50% throughout.

Consider `COc1cc(-c2cncc(N(C)[C@@H](C)c3ccccc3)n2)ccc1O` [Chemistry 142], for which the results for the inhibition at 50 µM at Tel-Jak2, on Tel-Jak3 and in the assay on DU145 were greater than 50%, greater than 50% and less than 50%, respectively.

`COc1cc(-c2cncc(Nc3cc(F)ccc3C)n2)ccc1O` [Chemistry 144]: the inhibition at 50 µM at Tel-Jak2 is greater than 50%; on Tel-Jak3, greater than 50%; with DU145, less than 50%.

With `COc1cc(-c2cncc(N[C@@H](C)c3ccc4ccccc4c3)n2)ccc1O` [Chemistry 155], the figures for the inhibition at 50 µM at Tel-Jak2, at Tel-Jak3 and in the assay with DU145 were greater than 50%, greater than 50% and less than 50%, respectively.

`COc1cc(-c2cncc(Nc3ccc(F)cc3C)n2)ccc1O` [Chemistry 156]: the results for the inhibition at 50 µM at Tel-Jak2, on Tel-Jak3 and in the assay on DU145 were greater than 50%, greater than 50% and less than 50%, respectively.

`COc1cccc([C@H](C)Nc2cncc(-c3ccc(O)c(OC)c3)n2)c1` [Chemistry 158]: the inhibition at 50 µM on Tel-Jak2, on Tel-Jak3 and in the assay on DU145 was greater than 50% each time.

Take `C[C@H](Nc1cncc(-c2ccc(F)c(Cl)c2)n1)c1ccccc1` [Chemistry 174]: the inhibition at 50 µM at Tel-Jak2 is greater than 50%; at Tel-Jak3, greater than 50%; with DU145, less than 50%.

In the case of `C[C@H](Nc1cncc(-c2ccc(O)c(Cl)c2)n1)c1ccccc1` [Chemistry 175], the inhibition at 50 µM at Tel-Jak2 is less than 50%; at Tel-Jak3, greater than 50%; with DU145, less than 50%.

On to `C[C@H](Nc1cncc(-c2ccc(N)cc2)n1)c1ccccc1` [Chemistry 181], for which the inhibition at 50 µM on Tel-Jak2 is greater than 50%; at Tel-Jak3, greater than 50%; in the assay with DU145, less than 50%.

As to `COc1cc(-c2cncc(NC(C)c3ccc(-c4ccccc4)cc3)n2)ccc1O` (stereo not shown) [Chemistry 185], the inhibition at 50 µM at Tel-Jak2 is greater than 50%; at Tel-Jak3, greater than 50%; in the assay with DU145 it was less than 50%.

Consider `COc1cc(-c2cncc(NC(C)c3ccc(-n4ccnc4)cc3)n2)ccc1O` (stereo not shown) [Chemistry 186], for which the inhibition at 50 µM at Tel-Jak2 is greater than 50%; at Tel-Jak3, greater than 50%; with DU145, less than 50%.

Take `COc1cc(-c2cncc(NC(C)c3cccnc3)n2)ccc1O` (stereo not shown) [Chemistry 187]: the inhibition at 50 µM on Tel-Jak2, on Tel-Jak3 and with DU145 was greater than 50% each time.

`C[C@H](Nc1cncc(-c2ccc(NS(C)(=O)=O)cc2)n1)c1ccccc1` [Chemistry 192]: the inhibition at 50 µM on Tel-Jak2, at Tel-Jak3 and in the assay with DU145 was greater than 50% each time.

Regarding `C[C@H](Nc1cncc(-c2ccc(NC(=O)C3CC3)cc2)n1)c1ccccc1` [Chemistry 193], the inhibition at 50 µM at Tel-Jak2, at Tel-Jak3 and in the assay on DU145 was greater than 50% in each case.

`COc1cc(-c2cncc(NC(C)c3ccncc3)n2)ccc1O` (stereo not shown) [Chemistry 200]: the values for the inhibition at 50 µM on Tel-Jak2, on Tel-Jak3 and with DU145 were greater than 50%, greater than 50% and less than 50%, respectively.

Take `C[C@H](Nc1cncc(-c2ccc(NS(=O)(=O)c3ccccc3)cc2)n1)c1ccccc1` [Chemistry 226]: the inhibition at 50 µM at Tel-Jak2, at Tel-Jak3 and in the assay on DU145 was greater than 50% in each case.

As for `COc1cc(-c2cncc(NC(C)c3cccc(NC(=O)N4CCN(C)CC4)c3)n2)ccc1O` (stereo not shown) [Chemistry 241], the inhibition at 50 µM on Tel-Jak2 was greater than 50%; at Tel-Jak3 it was greater than 50%; in the assay with DU145, less than 50%.

As for `COc1cc(-c2cncc(NC(C)c3ccc(-c4ccncc4)cc3)n2)ccc1O` (stereo not shown) [Chemistry 266], the inhibition at 50 µM at Tel-Jak2, on Tel-Jak3 and in the assay with DU145 was greater than 50% throughout.

On to `COc1cc(-c2cncc(NC(C)c3cccc(NC(=O)C4CCCN4)c3)n2)ccc1O` (stereo not shown) [Chemistry 267], for which the inhibition at 50 µM on Tel-Jak2, at Tel-Jak3 and in the assay with DU145 was greater than 50% throughout.

Turning to `COc1cc(-c2cncc(NC(C)c3cccc(NC(=O)c4cccnc4)c3)n2)ccc1O` (stereo not shown) [Chemistry 268], the inhibition at 50 µM at Tel-Jak2, on Tel-Jak3 and in the assay on DU145 was greater than 50% throughout.

Regarding `COc1cc(-c2cncc(NC(C)c3cccc(NC(=O)c4ccncc4)c3)n2)ccc1O` (stereo not shown) [Chemistry 269], the inhibition at 50 µM on Tel-Jak2, at Tel-Jak3 and with DU145 was greater than 50% throughout.

As for `COc1cc(-c2cncc(NC(C)c3ccc(-c4cccnc4)cc3)n2)ccc1O` (stereo not shown) [Chemistry 270], the inhibition at 50 µM on Tel-Jak2, at Tel-Jak3 and with DU145 was greater than 50% throughout.

Regarding `COc1cc(-c2cncc(NC(C)c3cccc(NC(C)=O)c3)n2)ccc1O` (stereo not shown) [Chemistry 276], the inhibition at 50 µM on Tel-Jak2 is greater than 50%; on Tel-Jak3 it was greater than 50%; with DU145, less than 50%.

Regarding `COc1cc(-c2cncc(NC(C)c3ccc(NC(=O)c4ccncc4)cc3)n2)ccc1O` (stereo not shown) [Chemistry 279], the inhibition at 50 µM at Tel-Jak2, at Tel-Jak3 and with DU145 was greater than 50% each time.
